According to patent US8933070B2, “Methods of targeting PTEN mutant diseases and compositions therefor” (University Health Network, priority 2010, dated 2015):

Columns and labels:
Aurora B = target: T1, Aurora B (Homo sapiens, UniProt Q96GD4); assay: Aurora B inhibition assay (Z-Lyte); format: biochemical; details: read-out: IC50 Ranges Aurura B
T1 construct: purchased Invitrogen PV3970
Experimental: Aurora B inhibition was determined using the Z-Lyte assay kit from Invitrogen. […] The % inhibition values were determined according to the manufacturer's directions and IC50 values were obtained using a non-linear 4 point logistic curve fit (XLfit4, IDBS).

[1] = tested on: MDA-MB-468 basal breast cancer cell line; assay: Cell growth inhibition, Sulforhodamine B (SRB) assay; format: cell-based; details: Homo sapiens, MDA-MB-468, 120 h, read-out: Cell Line GI50 Range MDA-MB-468
Experimental: Breast cancer and normal cells were seeded at various concentrations, ranging from 1500 to 4000 per 80 μl according to cell growth rate, into 96-well plates 24 hours before compound overlay. Each 10 mM stock solution in 100% DMSO of the compounds was diluted with Opti-MEM I Reduced-Serum Medium (Invitrogen, Canada) to make concentration ranges from 50 nM to 250 μM. 20 μl from each concentration was added to the cells to make the final concentration range from 10 nM to 50 μM. The cells were cultured at 37° C. for 5 days before the Sulforhodamine B (SRB) assay was performed to assess cell survival. SRB is a water-soluble dye that binds to the basic amino acids of cellular proteins. Thus, colorimetric measurement of the bound dye provides an estimate of the total protein mass and is related to cell number. The cells were fixed in situ by gently aspirating off the culture media and adding 50 μl ice-cold 10% Tri-chloroacetic Acid (TCA) per well and incubation at 4° C. for 30-60 min. The plates were washed with tap water five times and allowed to air dry for 5 min. 50 μl of 0.4% (w/v) SRB solution in 1% (v/v) acetic acid was added per well and incubated for 30 mM at RT for staining. Following staining, plates were washed four times with 1% acetic acid to remove any unbound dye and then allowed to air dry for 5 min. The stain was solubilized with 100 μl of 10 mM Tris pH 10.5 per well. Absorbances were read at 570 nm. The cell survival percentage at each compound concentration was calculated over the cell DMSO control, which was growing in the presence of 0.1% DMSO (0.5% in the case of 50 μM compounds). Cell viability GI50 values were calculated using GraphPad PRISM software (GraphPad Software, Inc.).

[2] = tested on: SK-N-SH brain cancer cell line; assay: Cell growth inhibition, SRB assay, extended panel; format: cell-based; details: Homo sapiens, read-out: GI50 Range SK-N-SH
Experimental: (§1) Breast cancer cells (MCF-7, MDA-MB-468 and HCC1954), colon cancer cells (SW620) and lung cancer cells (A549), together with human mammary epithelial primary cells (HMEC) were seeded (1000 to 4000 per 80 μl per well depending on the cell growth rate) into 96-well plates 24 hours before compound overlay. Compounds were prepared as 10 mM stock solutions in 100% DMSO which were diluted with DMEM (Dulbecco's Modified Eagle's Medium) cell growth Medium (Invitrogen, Canada) containing 10% FBS (Fetal Bovine Serum) to concentrations ranging from 50 nM to 250 μM. Aliquots (20 μl) from each concentration were overlaid to 80 μl of the pre-seeded cells in the 96-plates to make final concentrations of 10 nM to 50 μM. The cells were cultured for 5 days before the Sulforhodamine B (SRB) assay was performed to determine the compound's cell growth inhibition activity.
(§2) Sulforhodamine B (Sigma, Canada) is a water-soluble dye that binds to the basic amino acids of cellular proteins. Thus, colorimetric measurement of the bound dye provides an estimate of the total protein mass that is related to the cell number. The cells are fixed in situ by gently aspirating off the culture media and adding 50 μl ice cold 10% Trichloroacetic Acid (TCA) per well and incubated at 4° C. for 30-60 min. The plates are washed with water five times and allowed to air dry for 5 min. Addition of 50 μl 0.4% (w/v) SRB solution in 1% (v/v) acetic acid to each well and incubatation for […] at RT completes the staining reaction. Following staining, plates are washed four times with 1% acetic acid to remove unbound dye and then allowed to air dry for 5 min. The stain is solubilized with 100 μl of 10 mM Tris pH 10.5 per well. Absorbance is read at 570 nm.
(§3) The percentage (%) of relative growth inhibition was calculated by comparing to DMSO-treated only cells (100%). GI50's were determined for compounds with cytotoxic activity. The GI50 was calculated using GraphPad PRISM software (GraphPad Software, Inc., USA).
(§4) The SRB assay described above was used to assay test compounds against the extended panel (Table 6).

[3] = tested on: 184A1 immortalized breast cell line; assay: Cell growth inhibition, SRB assay, extended panel; format: cell-based; details: 184A1, read-out: GI50 Range 184A1
Experimental: as §1, §2, §3, §4

[4] = tested on: HCT-15 colon cancer cell line; assay: Cell growth inhibition, SRB assay, extended panel; format: cell-based; details: Homo sapiens, HCT-15, read-out: GI50 Range HCT-15
Experimental: as §1, §2, §3, §4

[5] = tested on: Colo 205 colon cancer cell line; assay: Cell growth inhibition, SRB assay, extended panel; format: cell-based; details: Homo sapiens, COLO 205, read-out: GI50 Range Colo 205
Experimental: as §1, §2, §3, §4

[6] = tested on: SW626 ovarian cancer cell line; assay: Cell growth inhibition, SRB assay, extended panel; format: cell-based; details: Homo sapiens, SW626, read-out: GI50 Range SW626
Experimental: as §1, §2, §3, §4

[7] = tested on: BT-474 breast cancer cell line; assay: Cell growth inhibition, SRB assay, extended panel; format: cell-based; details: Homo sapiens, BT-474, read-out: GI50 Range BT-474
Experimental: as §1, §2, §3, §4

518A2 melanoma cell line = assay: Cell growth inhibition, SRB assay, extended panel; format: cell-based; details: Homo sapiens, 518A2, read-out: GI50 Range 518A2
Experimental: as §1, §2, §3, §4

[8] = tested on: SK-OV-3 ovarian cancer cell line; assay: Cell growth inhibition, SRB assay, extended panel; format: cell-based; details: Homo sapiens, SK-OV-3, read-out: GI50 Range SK-OV-3
Experimental: as §1, §2, §3, §4

[9] = tested on: OVCAR-3 ovarian cancer cell line; assay: Cell growth inhibition, SRB assay, extended panel; format: cell-based; details: Homo sapiens, OVCAR-3, read-out: GI50 Range OVCAR-3
Experimental: as §1, §2, §3, §4

[10] = tested on: Hs578T breast cancer cell line; assay: Cell growth inhibition, SRB assay, extended panel; format: cell-based; details: Homo sapiens, Hs-578T, read-out: GI50 Range Hs578T
Experimental: as §1, §2, §3, §4

[11] = tested on: T-47D breast cancer cell line; assay: Cell growth inhibition, SRB assay, extended panel; format: cell-based; details: Homo sapiens, T47D, read-out: GI50 Range T-47D
Experimental: as §1, §2, §3, §4

[12] = tested on: Hs683 brain cancer cell line; assay: Cell growth inhibition, SRB assay, extended panel; format: cell-based; details: Homo sapiens, Hs 683, read-out: GI50 Range Hs683
Experimental: as §1, §2, §3, §4

[13] = tested on: A172 brain cancer cell line; assay: Cell growth inhibition, SRB assay, extended panel; format: cell-based; details: Homo sapiens, A 172, read-out: GI50 Range A172
Experimental: as §1, §2, §3, §4

[14] = tested on: SKBr-3 breast cancer cell line; assay: Cell growth inhibition, SRB assay, extended panel; format: cell-based; details: Homo sapiens, SK-BR-3, read-out: GI50 Range SKBr-3
Experimental: as §1, §2, §3, §4

[15] = tested on: PC-3 prostate cancer cell line; assay: Cell growth inhibition, SRB assay, extended panel; format: cell-based; details: read-out: GI50 Range PC-3
Experimental: as §1, §2, §3, §4

[16] = tested on: H358 lung cancer cell line; assay: Cell growth inhibition, SRB assay, extended panel; format: cell-based; details: Homo sapiens, NCI-H358, read-out: GI50 Range H358
Experimental: as §1, §2, §3, §4

FGFR2 = FGFR2 (Homo sapiens, UniProt P21802); assay: Kinase selectivity assay (CEREP, HTRF); format: biochemical; details: read-out: % Inhibition at 10 μM Concentration
FGFR2, sequence (P21802 22-821): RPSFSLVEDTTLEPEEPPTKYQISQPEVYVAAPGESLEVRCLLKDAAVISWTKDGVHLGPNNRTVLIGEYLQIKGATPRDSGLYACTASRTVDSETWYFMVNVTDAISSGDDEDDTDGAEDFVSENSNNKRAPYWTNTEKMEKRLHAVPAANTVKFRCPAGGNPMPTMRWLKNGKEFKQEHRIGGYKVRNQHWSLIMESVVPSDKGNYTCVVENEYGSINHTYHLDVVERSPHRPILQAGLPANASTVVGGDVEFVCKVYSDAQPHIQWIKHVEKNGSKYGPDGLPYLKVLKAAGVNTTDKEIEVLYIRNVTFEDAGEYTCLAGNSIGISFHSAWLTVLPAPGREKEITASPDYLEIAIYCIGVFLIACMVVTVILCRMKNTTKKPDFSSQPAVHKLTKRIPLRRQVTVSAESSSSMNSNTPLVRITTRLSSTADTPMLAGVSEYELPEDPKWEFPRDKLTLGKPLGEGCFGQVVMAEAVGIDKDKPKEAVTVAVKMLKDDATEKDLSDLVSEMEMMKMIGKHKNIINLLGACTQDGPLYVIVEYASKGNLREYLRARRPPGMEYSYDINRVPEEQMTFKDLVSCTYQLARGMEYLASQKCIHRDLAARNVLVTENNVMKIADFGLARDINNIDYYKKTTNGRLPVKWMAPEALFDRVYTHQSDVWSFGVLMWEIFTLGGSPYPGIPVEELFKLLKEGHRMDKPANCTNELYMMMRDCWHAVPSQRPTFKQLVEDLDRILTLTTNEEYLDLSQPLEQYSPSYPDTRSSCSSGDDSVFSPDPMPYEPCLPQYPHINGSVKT
Experimental: The inhibitory activity of selected compounds was evaluated against a panel of 45 different kinase enzymes by CEREP, France. The assays were performed using standard HTRF assay methods as documented by CEREP against the human orthologues of Abl kinase, Akt1/PKBa, AMPKa, BMX kinase (Etk), Brk, CaMK2a, CaMK4, CDC2/CDK1 (cycB), CHK1, CHK2, c-Met kinase, CSK, EphB4 kinase, ERK1, ERK2 (P42mapk), FGFR2 kinase, FGFR4 kinase, FLT-1 kinase (VEGFR1), FLT-3 kinase, Fyn kinase, IGF1R kinase, IRK (InsR), JNK 2, KDR kinase (VEGFR2), Lck kinase, Lyn kinase, MAPKAPK2, MEK1/MAP2K1, p38a kinase, p38d kinase, p38g kinase, PDGFRb kinase, PDK1, PKA, PKCa, PKCb1, PKCb2, PKCg, Ret kinase, ROCK2, RSK2, Src kinase, Syk, and TRKA. The % Inhibition was determined by the formula; % Inhibition=100×(1−(experimental value−background value)/(high activity control−background value)).

T1 sequence (Q96GD4 whole entry): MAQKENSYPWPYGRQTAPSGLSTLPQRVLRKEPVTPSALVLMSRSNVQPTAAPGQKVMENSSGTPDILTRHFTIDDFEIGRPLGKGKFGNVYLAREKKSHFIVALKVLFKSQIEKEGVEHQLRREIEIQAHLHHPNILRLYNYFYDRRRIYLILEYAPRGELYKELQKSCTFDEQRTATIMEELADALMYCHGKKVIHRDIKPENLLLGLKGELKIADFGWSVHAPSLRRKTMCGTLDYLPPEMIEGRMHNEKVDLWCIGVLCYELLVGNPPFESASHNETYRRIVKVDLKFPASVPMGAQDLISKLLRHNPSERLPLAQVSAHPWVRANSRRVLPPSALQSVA

Q: Which IC50 (Aurora B) does the source give for `COc1ccc2c(c1)[C@@]1(C[C@@H]1c1ccc3c(-c4ccc(N5CCN(C)CC5)nc4)n[nH]c3c1)C(=O)N2` (racemic) [Compound 2] here?
A: < 5 µM

Q: What about the GI50 [1] of the same compound?
A: < 5 µM

Q: How did the GI50 [1] turn out when `CN(C)Cc1ccc(/C=C/c2n[nH]c3cc([C@H]4C[C@@]45C(=O)Nc4ccccc45)ccc23)cc1` (racemic) [Compound 35] was run?
A: < 5 µM

Q: What does the source list for `COc1ccc2c(c1)/C(=C\c1ccc3c(/C=C/c4ccc(N5CCN(C)CC5)nc4)n[nH]c3c1)C(=O)N2` [Compound 3]?
A: IC50 (Aurora B): < 5 µM; GI50 [2]: < 5 µM; GI50 [3]: < 5 µM; GI50 [4]: < 5 µM; GI50 [5]: < 5 µM; GI50 [6]: < 5 µM; GI50 [7]: < 5 µM; GI50 (518A2 melanoma cell line): < 5 µM; GI50 [8]: < 5 µM; GI50 [9]: < 5 µM; GI50 [10]: < 5 µM; GI50 [11]: < 5 µM; GI50 [12]: < 5 µM; GI50 [13]: < 5 µM; GI50 [14]: < 5 µM; GI50 [15]: < 5 µM; GI50 [16]: < 5 µM; inhibition at 10 µM (FGFR2): 4%
